Measurements taken from US20160289186A1, “FLUOROMETHYL-SUBSTITUTED PYRROLE CA[…]” (Grunenthal GmbH, priority 2013, published 2016).

What follows are compounds tested against T1, Human CaV2.2 channels (Homo sapiens, UniProt Q00975) (assay: Fluorescent (FLIPR) assay for CaV2.2 channels using potassium depolarization to induce channel opening). Conditions: 3 μM compound; 30 mM KCl assay buffer (inactivated channel state); HEK293 cells stably expressing human CaV2.2; read-out: Activity Category: %-Inhib (CaV2.2) @3 μM @30 mM KCl.
T1 construct: expressed in transfected cells; host or cells: HEK293
T1 sequence (Q00975 whole entry): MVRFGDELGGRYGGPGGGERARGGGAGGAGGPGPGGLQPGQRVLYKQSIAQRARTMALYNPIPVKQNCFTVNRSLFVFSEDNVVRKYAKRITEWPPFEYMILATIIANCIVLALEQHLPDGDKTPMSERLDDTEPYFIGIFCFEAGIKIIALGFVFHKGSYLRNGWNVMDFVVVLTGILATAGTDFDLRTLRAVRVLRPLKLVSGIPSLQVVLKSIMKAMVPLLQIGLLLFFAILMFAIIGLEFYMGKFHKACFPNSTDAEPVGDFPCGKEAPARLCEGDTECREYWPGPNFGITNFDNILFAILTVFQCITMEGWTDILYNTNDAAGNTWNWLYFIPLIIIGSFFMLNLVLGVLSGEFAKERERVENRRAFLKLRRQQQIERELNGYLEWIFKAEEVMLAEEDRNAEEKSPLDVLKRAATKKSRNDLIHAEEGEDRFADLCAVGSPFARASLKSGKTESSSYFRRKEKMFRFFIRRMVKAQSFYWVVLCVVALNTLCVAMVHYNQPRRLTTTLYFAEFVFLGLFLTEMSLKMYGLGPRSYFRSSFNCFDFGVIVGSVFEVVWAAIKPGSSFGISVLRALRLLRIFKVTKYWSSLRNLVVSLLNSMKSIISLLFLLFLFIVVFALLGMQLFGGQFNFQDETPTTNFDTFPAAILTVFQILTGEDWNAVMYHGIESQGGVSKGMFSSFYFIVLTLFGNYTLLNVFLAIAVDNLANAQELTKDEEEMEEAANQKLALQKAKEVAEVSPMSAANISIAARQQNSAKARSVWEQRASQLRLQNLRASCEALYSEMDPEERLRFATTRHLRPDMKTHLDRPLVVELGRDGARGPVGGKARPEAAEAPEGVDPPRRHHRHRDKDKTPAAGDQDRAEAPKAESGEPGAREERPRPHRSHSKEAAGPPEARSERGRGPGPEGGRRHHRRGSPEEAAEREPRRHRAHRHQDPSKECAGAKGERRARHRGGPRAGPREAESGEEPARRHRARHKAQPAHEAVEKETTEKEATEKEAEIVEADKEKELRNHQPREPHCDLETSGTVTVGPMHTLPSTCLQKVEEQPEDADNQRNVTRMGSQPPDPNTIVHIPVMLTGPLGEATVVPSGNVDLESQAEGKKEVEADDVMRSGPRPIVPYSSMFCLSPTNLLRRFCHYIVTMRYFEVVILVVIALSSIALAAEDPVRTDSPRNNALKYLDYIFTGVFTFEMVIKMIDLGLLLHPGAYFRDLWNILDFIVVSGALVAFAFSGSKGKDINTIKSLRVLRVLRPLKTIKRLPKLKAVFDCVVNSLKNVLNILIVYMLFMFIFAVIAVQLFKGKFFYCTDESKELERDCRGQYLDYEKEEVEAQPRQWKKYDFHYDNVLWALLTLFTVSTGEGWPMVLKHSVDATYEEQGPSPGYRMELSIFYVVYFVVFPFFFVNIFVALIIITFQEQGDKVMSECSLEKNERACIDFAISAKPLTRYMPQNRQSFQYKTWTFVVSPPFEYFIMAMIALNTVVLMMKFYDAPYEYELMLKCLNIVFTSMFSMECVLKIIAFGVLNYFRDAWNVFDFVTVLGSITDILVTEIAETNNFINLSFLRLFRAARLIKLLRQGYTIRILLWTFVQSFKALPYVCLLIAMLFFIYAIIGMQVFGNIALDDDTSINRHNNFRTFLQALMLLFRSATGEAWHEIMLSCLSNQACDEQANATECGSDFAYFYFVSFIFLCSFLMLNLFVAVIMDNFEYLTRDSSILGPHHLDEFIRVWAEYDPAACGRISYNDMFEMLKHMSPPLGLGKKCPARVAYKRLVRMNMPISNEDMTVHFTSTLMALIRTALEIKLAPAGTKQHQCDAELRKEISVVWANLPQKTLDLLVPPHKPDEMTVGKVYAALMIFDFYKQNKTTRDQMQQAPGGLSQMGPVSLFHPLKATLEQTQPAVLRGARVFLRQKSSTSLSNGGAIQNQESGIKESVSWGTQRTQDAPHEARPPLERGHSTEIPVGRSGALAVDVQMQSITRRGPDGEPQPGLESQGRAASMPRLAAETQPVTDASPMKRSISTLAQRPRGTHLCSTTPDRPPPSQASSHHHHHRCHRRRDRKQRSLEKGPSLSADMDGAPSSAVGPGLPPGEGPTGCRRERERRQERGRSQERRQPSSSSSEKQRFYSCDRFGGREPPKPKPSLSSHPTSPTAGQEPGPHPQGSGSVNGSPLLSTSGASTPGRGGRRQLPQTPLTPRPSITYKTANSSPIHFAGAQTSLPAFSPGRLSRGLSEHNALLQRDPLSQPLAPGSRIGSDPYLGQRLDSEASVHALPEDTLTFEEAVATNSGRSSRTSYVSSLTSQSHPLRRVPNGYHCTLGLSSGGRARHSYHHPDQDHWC
T1 sequence (P54284 whole entry, further chain): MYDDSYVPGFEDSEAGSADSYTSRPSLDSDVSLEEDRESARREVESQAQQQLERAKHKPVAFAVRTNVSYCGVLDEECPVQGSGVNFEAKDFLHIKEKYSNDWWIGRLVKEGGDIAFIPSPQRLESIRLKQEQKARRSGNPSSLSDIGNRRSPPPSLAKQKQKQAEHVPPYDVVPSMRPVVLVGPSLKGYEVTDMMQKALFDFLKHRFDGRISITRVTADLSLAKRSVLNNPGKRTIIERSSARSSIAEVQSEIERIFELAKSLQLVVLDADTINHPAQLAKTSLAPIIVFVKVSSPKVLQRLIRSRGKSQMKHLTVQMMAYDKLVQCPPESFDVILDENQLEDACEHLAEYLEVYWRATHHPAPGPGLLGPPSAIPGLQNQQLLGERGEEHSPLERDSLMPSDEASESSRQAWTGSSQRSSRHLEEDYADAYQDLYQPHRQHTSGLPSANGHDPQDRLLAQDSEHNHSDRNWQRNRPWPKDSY
T1 sequence (P54289 25-1103, further chain): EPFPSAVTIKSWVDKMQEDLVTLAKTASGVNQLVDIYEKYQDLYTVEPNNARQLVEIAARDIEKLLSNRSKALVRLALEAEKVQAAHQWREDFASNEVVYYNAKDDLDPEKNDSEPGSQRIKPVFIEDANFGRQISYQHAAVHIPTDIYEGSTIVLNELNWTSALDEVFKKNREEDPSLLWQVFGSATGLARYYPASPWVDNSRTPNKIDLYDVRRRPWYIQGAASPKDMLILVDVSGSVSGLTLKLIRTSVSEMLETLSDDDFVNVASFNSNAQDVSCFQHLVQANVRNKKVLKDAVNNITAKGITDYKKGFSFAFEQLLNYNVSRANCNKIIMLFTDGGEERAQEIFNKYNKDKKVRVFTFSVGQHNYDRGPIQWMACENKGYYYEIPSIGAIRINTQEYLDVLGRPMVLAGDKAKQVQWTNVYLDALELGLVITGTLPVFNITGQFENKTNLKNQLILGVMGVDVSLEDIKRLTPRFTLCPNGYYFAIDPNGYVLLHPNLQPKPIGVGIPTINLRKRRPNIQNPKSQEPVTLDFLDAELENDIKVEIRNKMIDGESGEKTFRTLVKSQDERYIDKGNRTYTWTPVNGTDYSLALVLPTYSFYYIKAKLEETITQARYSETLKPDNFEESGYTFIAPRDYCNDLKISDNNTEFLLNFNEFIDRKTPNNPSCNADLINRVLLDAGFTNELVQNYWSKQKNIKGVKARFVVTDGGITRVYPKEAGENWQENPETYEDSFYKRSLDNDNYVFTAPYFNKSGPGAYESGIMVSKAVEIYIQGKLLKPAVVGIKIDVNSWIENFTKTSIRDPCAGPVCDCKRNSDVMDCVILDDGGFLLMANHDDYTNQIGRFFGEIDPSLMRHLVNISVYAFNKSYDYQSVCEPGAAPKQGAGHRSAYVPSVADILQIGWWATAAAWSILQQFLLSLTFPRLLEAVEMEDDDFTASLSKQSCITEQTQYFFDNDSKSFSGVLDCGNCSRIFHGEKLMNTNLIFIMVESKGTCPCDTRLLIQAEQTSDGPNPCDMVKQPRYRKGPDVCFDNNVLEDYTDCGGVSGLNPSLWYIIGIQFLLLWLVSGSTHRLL
Assay type: cell-based
Excerpt: In the process, the Ca^2+ influx is quantified in the FLIPR assay with the aid of a Ca^2+-sensitive dye (type Fluo-4, Molecular Probes Europe BV, Leiden, the Netherlands) in a fluorescent imaging plate reader (FLIPR 3, Molecular Devices, Sunnyvale, USA), as described hereinafter.
Human CaV2.2 channels were stably expressed in HEK293 cells together with alpha2-delta and beta subunits of voltage gated calcium channels. In addition, an inwardly rectifying potassium channel (Kir2.3) was stably expressed in these cells to augment control of the cell membrane potential by the concentration of extracellular potassium ions. Raise of the extracellular potassium concentration leads to depolarization of the membrane potential and thus regulates the voltage dependent state of CaV2.2 channels. For preparation, cells were seeded in black poly-D-lysine coated 96-well plates (Becton Dickinson, Biocoat 4640) in 100 μL medium [500 mL DMEM/F-12 plus Glutamax (Invitrogen 31331-093) plus 5.5 mL MEM NEAA 100× (Invitrogen 11140-035) plus 50 mL FBS decomplemented (Invitrogen 10270-106) plus 200 μg/mL Geneticin (Invitrogen 10131-027) plus 50 μg/mL Hygromycin B (Invitrogen 10687-010) plus 2 μg/mL Blasticidin (anti-bl5b Invivo-Gen) plus 0.2 μg/mL Puromycin (A 11138-03)] at a cell density of 30.000 cells per well. Plates were incubated at 37° C. (5% CO2) for 20 to 23 h. On the day of experiment medium was discarded and cells were loaded with Fluo 4 by addition of 100 μL of basic assay buffer (10 mM HEPES, 1 mM KCl, 149 mM NaCl, 0.8 mM CaCl2, 1.7 mM MgCl2, 10 mM Glucose, 0.1% BSA. pH 7.4) containing 2 μM Fluo 4 (Molecular Probes; F-14201), 0.01% pluronic acid (Molecular Probes; P-6866) and 2.5 mM probenecid (Molecular Probes; P36400). Cells were incubated in the dark at 25° C. for 60 min. Then dye containing buffer was discarded and 100 μL basic (1 mM KCl) or alternative (30 mM KCl) assay buffer was added. The alternative assay buffer contained altered concentrations of KCl (30 mM) and NaCl (120 mM) and was used in order to promote the inactivated channel state. After that 25 μL of basic or alternative assay buffer with or without test compound were added and cells were incubated again in the dark at 25° C. for 15 min. Fluorescence intensity was measured on a FLIPR 3 instrument (Molecular Devices Corp., Sunnyvale, Calif.) with excitation at 480 nm and emission at 535 nm. After continuously reading fluorescence for 30 sec, 50 μL of basic assay buffer containing 210 mM KCl (NaCl omitted) were added for depolarization. Peak fluorescent signal intensity was determined and the amplitude of the peak signal, normalized to base line, was used to measure channel inhibition by test compounds.

Row | SMILES | inhibition at 3 µM [%]
1 | CN(CC(C)(C)C)C(=O)c1c(-c2ccc(F)cc2)cc(C(F)(F)F)n1CC1CCCO1 (stereo not shown) [Example 073, N-(2,2-Dimethyl-propyl)-3-(4-fluorophenyl)-N-methyl-1-(tetrahydro-furan-2-yl-methyl)-5-(trifluoromethyl)-1H-pyrrole-2-carboxylic acid amide] | 75 to 95
2 | O=C(c1c(-c2ccc(Cl)cc2)cc(C(F)(F)F)n1C1CC1)N1CC(O)C1 [Example 026, [3-(4-Chlorophenyl)-1-cyclopropyl-5-(trifluoromethyl)-1H-pyrrol-2-yl]-(3-hydroxy-azetidin-1-yl)-methanone] | 40 to 75
3 | Cc1c(-c2ccc(Cl)cc2)c(C(=O)N2CCOCC2)n(C2CC2)c1C(F)(F)F [Example 043, [3-(4-Chlorophenyl)-1-cyclopropyl-4-methyl-5-(trifluoromethyl)-1H-pyrrol-2-yl]-morpholin-4-yl-methanone] | 75 to 95
4 | Cc1c(-c2ccc(Cl)cc2)c(C(=O)N(C)CC(C)(C)CN2CCOCC2)n(C2CC2)c1C(F)(F)F [Example 016, 3-(4-Chlorophenyl)-1-cyclopropyl-N-(2,2-dimethyl-3-morpholin-4-yl-propyl)-N,4-dimethyl-5-(trifluoromethyl)-1H-pyrrole-2-carboxylic acid amide] | > 95
5 | Cc1c(-c2ccc(Cl)cc2)c(C(=O)N(Cc2ccccc2)C2CCOCC2)n(C)c1C(F)(F)F [Example 001, N-Benzyl-3-(4-chlorophenyl)-1,4-dimethyl-N-tetrahydro-pyran-4-yl-5-(trifluoromethyl)-1H-pyrrole-2-carboxylic acid amide] | 75 to 95
6 | Cc1c(-c2ccc(Cl)cn2)c(C(=O)N(C)C2CCNC2=O)n(C(C)C)c1C(F)(F)F (stereo not shown) [Example 119, 3-(5-Chloro-pyridin-2-yl)-1-isopropyl-N,4-dimethyl-N-(2-oxo-pyrrolidin-3-yl)-5-(trifluoromethyl)-1H-pyrrole-2-carboxylic acid amide] | 40 to 75
7 | Cc1c(-c2ccc(Cl)cc2)c(C(=O)N(C)CC(C)(C)C)n(C)c1C(F)(F)F [Example 002, 3-(4-Chlorophenyl)-N-(2,2-dimethyl-propyl)-N,1,4-trimethyl-5-(trifluoromethyl)-1H-pyrrole-2-carboxylic acid amide] | 75 to 95
8 | Cc1c(-c2ccc(Cl)cc2)c(C(=O)N(C)CC(C)(C)C#N)n(C(C)C)c1C(F)(F)F [Example 106, 3-(4-Chlorophenyl)-N-(2-cyano-2-methyl-propyl)-1-isopropyl-N,4-dimethyl-5-(trifluoromethyl)-1H-pyrrole-2-carboxylic acid amide] | 75 to 95
9 | Cc1cc(CN(C)C(=O)c2c(-c3ccc(F)cc3)cc(C(F)(F)F)n2CC(C)C)no1 [Example 047, 3-(4-Fluorophenyl)-N-methyl-N-[(5-methyl-isoxazol-3-yl)-methyl]-1-(2-methyl-propyl)-5-(trifluoromethyl)-1H-pyrrole-2-carboxylic acid amide] | > 95
10 | Cc1c(-c2ccc(Cl)cc2)c(C(=O)N2CCOC(C)(C)C2)n(C)c1C(F)(F)F [Example 102, [3-(4-Chlorophenyl)-1,4-dimethyl-5-(trifluoromethyl)-1H-pyrrol-2-yl]-(2,2-dimethyl-morpholin-4-yl)-methanone] | 75 to 95
11 | Cc1c(-c2ccc(Cl)cc2)c(C(=O)N(C)C2CCNC2=O)n(C(C)C)c1C(F)(F)F (stereo not shown) [Example 115, 3-(4-Chlorophenyl)-1-isopropyl-N,4-dimethyl-N-(2-oxo-pyrrolidin-3-yl)-5-(trifluoromethyl)-1H-pyrrole-2-carboxylic acid amide] | 75 to 95
12 | CC(C)Cn1c(C(F)(F)F)cc(-c2ccc(F)cc2)c1C(=O)N1CCOCC1 [Example 065, [3-(4-Fluorophenyl)-1-(2-methyl-propyl)-5-(trifluoromethyl)-1H-pyrrol-2-yl]-morpholin-4-yl-methanone] | 75 to 95
13 | CN(CC(C)(C)C)C(=O)c1c(-c2ccc(Cl)cc2)cc(C(F)(F)F)n1CC1(N)CC1 [Example 088, 1-[(1-Amino-cyclopropyl)-methyl]-3-(4-chlorophenyl)-N-(2,2-dimethyl-propyl)-N-methyl-5-(trifluoromethyl)-1H-pyrrole-2-carboxylic acid amide] | 75 to 95
14 | CN(C(=O)c1c(-c2ccc(Cl)cc2)cc(C(F)(F)F)n1C1CC1)C1CC1 [Example 013, 3-(4-Chlorophenyl)-N,1-dicyclopropyl-N-methyl-5-(trifluoromethyl)-1H-pyrrole-2-carboxylic acid amide] | 75 to 95
15 | Cc1c(-c2ccc(Cl)cc2)c(C(=O)N(C)Cc2ccncn2)n(CC(C)C)c1C(F)(F)F [Example 048, 3-(4-Chlorophenyl)-N,4-dimethyl-1-(2-methyl-propyl)-N-(pyrimidin-4-yl-methyl)-5-(trifluoromethyl)-1H-pyrrole-2-carboxylic acid amide] | > 95
16 | Cc1cc(CN(C)C(=O)c2c(-c3ccc(Cl)cn3)c(C)c(C(F)(F)F)n2C(C)C)no1 [Example 113, 3-(5-Chloro-pyridin-2-yl)-1-isopropyl-N,4-dimethyl-N-[(5-methyl-isoxazol-3-yl)-methyl]-5-(trifluoromethyl)-1H-pyrrole-2-carboxylic acid amide] | 75 to 95
17 | Cc1c(-c2ccc(Cl)cc2)c(C(=O)N(C)CC(C)(C)CO)n(C2CC2)c1C(F)(F)F [Example 040, 3-(4-Chlorophenyl)-1-cyclopropyl-N-(3-hydroxy-2,2-dimethyl-propyl)-N,4-dimethyl-5-(trifluoromethyl)-1H-pyrrole-2-carboxylic acid amide] | 75 to 95
18 | CN(CC(C)(C)C)C(=O)c1c(-c2ccc(Cl)cc2)cc(C(F)(F)F)n1CC1(O)CCCC1 [Example 090, 3-(4-Chlorophenyl)-N-(2,2-dimethyl-propyl)-1-[(1-hydroxy-cyclopentyl)-methyl]-N-methyl-5-(trifluoromethyl)-1H-pyrrole-2-carboxylic acid amide] | 75 to 95
19 | Cc1c(-c2ccc(Cl)cc2)c(C(=O)N2CCOC(C)(C)C2)n(C2CC2)c1C(F)(F)F [Example 032, [3-(4-Chlorophenyl)-1-cyclopropyl-4-methyl-5-(trifluoromethyl)-1H-pyrrol-2-yl]-(2,2-dimethyl-morpholin-4-yl)-methanone] | > 95
20 | Cc1c(-c2ccc(Cl)cc2)c(C(=O)N(C)CCS(C)(=O)=O)n(CC2(O)CCCC2)c1C(F)(F)F [Example 094, 3-(4-Chlorophenyl)-1-[(1-hydroxy-cyclopentyl)-methyl]-N,4-dimethyl-N-(2-methylsulfonyl-ethyl)-5-(trifluoromethyl)-1H-pyrrole-2-carboxylic acid amide] | > 95
21 | Cc1cnc(CN(C)C(=O)c2c(-c3ccc(Cl)cc3)c(C)c(C(F)(F)F)n2CC(C)C)cn1 [Example 059, 3-(4-Chlorophenyl)-N,4-dimethyl-1-(2-methyl-propyl)-N-[(5-methyl-pyrazin-2-yl)-methyl]-5-(trifluoromethyl)-1H-pyrrole-2-carboxylic acid amide] | > 95
22 | CN(CC(C)(C)CN1CCOCC1)C(=O)c1c(-c2ccc(Cl)cc2)cc(C(F)(F)F)n1C1CC1 [Example 017, 3-(4-Chlorophenyl)-1-cyclopropyl-N-(2,2-dimethyl-3-morpholin-4-yl-propyl)-N-methyl-5-(trifluoromethyl)-1H-pyrrole-2-carboxylic acid amide] | 75 to 95
